Laboratory results from patent US20100331424A1, “Use of Axomadol for Treatment of Arthrosis Pain” (Gruenenthal GmbH, priority 2007, published 2010).
Where a name gives a salt, the structure may show the parent alone.

Columns and labels:
[1] = system: CFA-hyperalgesia (CFA-HA); assay: Antihyperalgesic effect in the chronic inflammation pain model (Complete Freund's Adjuvant, electronic von Frey); format: in vivo, Sprague Dawley rats
Experimental: The test to determine the antihyperalgesic effect of axomadol in chronic inflammation pain was conducted on rats in the Complete Freund's Adjuvant animal model (CFA).
A model for chronic inflammation represents the monoarthritis triggered by the Complete Freund's Adjuvant (CFA). By injecting a small quantity of CFA (100 μg M. tuberculosis) into the back paw a local inflammatory reaction restricted in time to 2-4 weeks occurred.
Sprague Dawley rats from a commercial breeder (Janvier, Belgium) having a weight of 140-160 g were used as test animals. The CFA-HA was induced in rats by subplantar injection of CFA (100 μl of the 1 mg/ml mycobacteria (heat-killed M. tuberculosis)/oil suspension (IFA; Difco)) into the back paw (ipsilaterally). The injection day was defined as day 0 (d 0).
Hyperalgesia to a mechanical tactile stimulus was detected by means of an electronic von Frey measuring instrument (Somedic Electronic von Frey System, Somedic Sales AB, Horby, Sweden). The paw was stimulated by subplantar application. To quantify the sensitivity of both the ipsi- and the contralateral paw to the mechanical stimulus, the paw pull-away threshold was given in grams of applied pressure. The median was formed from the four measured values per paw. The pull-away threshold of the ipsi- and contralateral paw was determined on day 1 after CFA injection before (=initial value) and at different times (15, 20 and 60 minutes) after substance dose (measured value). The efficacy of a substance was calculated as % inhibition of hyperalgesia as follows:
% inhibition of HA=(1−HA measured value/HA initial value)×100
HA initial value=pull away threshold contralateral−pull away threshold ipsilateral before substance dose
HA measured value=pull away threshold contralateral−pull away threshold ipsilateral after substance dose
In total, 10 rats were used in each test animal group. The mean±SEM was calculated from the medians of the individual animals. The significance calculation was conducted using the two-factor analysis of the variance (ANOVA) for repeated measurements. In the case of a significant treatment effect, a comparison in pairs was conducted at different measurement times by a Fisher's significance test, followed by a post hoc Dunnett test. The results were assessed as statistically significant at p<0.05.
In order to determine the maximum efficacy, the substance was administered intravenously (IV) up to the maximum possible dose.

[2] = system: moderate to severe chronic pain as a result of osteoarthritis (OA) of the knee; assay: Clinical Study B: axomadol vs oxycodone CR and placebo, 4 weeks, patients with OA of the knee; format: in vivo; conditions: for p of primary endpoint compared to the placebo group: per protocol set
Experimental: In this study, patients with OA of the knee were divided into 4 groups. Two of the patient groups received different doses of axomadol hydrochloride: 100 mg and 150 mg based on the free base, twice daily in each case after a titration period of 2 weeks, in which the dose of axomadol was increased on a weekly basis. […] A further group was given a placebo twice daily.

[3] = system: moderate to severe chronic pain as a result of osteoarthritis (arthrosis, OA) of functional class I-III; assay: Both clinical studies (A and B), statements made for both; format: in vivo, patients; conditions: after 4 weeks
Experimental: (§1) Two studies with a respective treatment period of 4 weeks were conducted to determine the efficacy and safety of axomadol in patients with moderate to severe chronic pain as a result of osteoarthritis (arthrosis, OA) of functional class I-III.

[4] = system: moderate to severe chronic pain as a result of osteoarthritis (OA) of the hip or knee; assay: Clinical Study A: axomadol vs tramadol and placebo, 4 weeks, patients with OA of the hip or knee; format: in vivo; conditions: for Decrease in pain intensity compared to baseline: full analysis set, day 29, axomadol 44, 66, 110 mg bid, tramadol 100 mg bid
Experimental: as §1
In this study, patients with OA of the hip or knee were divided into 5 groups.

COc1ccc2c3c1O[C@H]1C(=O)CC[C@@]4(O)[C@@H](C2)N(C)CC[C@]314 [Oxycodone]
Dose from which overlap with antinociceptive effect (comparators: also side-effects that impair measurement) ([1]; rat, IV): From 0.681 mg/kg: overlap with antinociceptive
% Inhibition of HA ([1]; rat, IV, dose 0.215 mg/kg): 18%
% Inhibition of HA ([1]; rat, IV, dose 0.681 mg/kg): 26%
p of primary endpoint compared to the placebo group ([2]; oxycodone CR 20 mg twice daily group): 0.0154

COc1cccc([C@@]2(O)C[C@H](O)CC[C@@H]2CN(C)C)c1 (racemic) [Axomadol, (1RS,3RS,6RS)-6-dimethylaminomethyl-1-(3-methoxyphenyl)-cyclohexane-1,3-diol]
Decrease in pain intensity [3]: clinically significant decrease in pain intensity
Decrease in pain intensity compared to baseline [4]: clinically relevant decrease in pain intensity
p of decrease in pain intensity compared to the placebo group ([4]; per protocol set, 110 mg twice daily): < 0.05
Decrease in pain intensity, dose dependence ([4]; per protocol set, axomadol 44, 66, 110 mg twice daily): higher efficacy at the higher dose
Analgesic efficacy compared to morphine, oxycodone and tramadol (in words) ([1]; chronic inflammation pain model): better analgesic efficacy
Effect on CFA-induced hyperalgesia (in words) ([1]; rat): significantly reduces
Frequency of undesirable side-effects which caused patients to discontinue the study ([2]; 100 mg group): 16.3%
Frequency of undesirable side-effects which caused patients to discontinue the study ([2]; 150 mg group): 17.7%
Severity of undesirable effects ([2]; axomadol groups 100 mg and 150 mg twice daily): slight to moderate
p of average pain intensity of the last 24 hours on day 29 compared to the placebo ([2]; full analysis set, 100 mg twice daily): 0.0190
p of primary endpoint compared to the placebo group ([2]; 100 mg twice daily group): 0.0068
p of primary endpoint compared to the placebo group ([2]; 150 mg twice daily group): 0.0079

CN1CC[C@]23c4c5ccc(O)c4O[C@H]2[C@@H](O)C=C[C@H]3[C@H]1C5 [Morphine]
Dose from which overlap with antinociceptive effect (comparators: also side-effects that impair measurement) ([1]; rat, IV): From 4.64 mg/kg: overlap with antinociceptive
% Inhibition of HA ([1]; rat, IV, dose 0.46 mg/kg): 8%
% Inhibition of HA ([1]; rat, IV, dose 1.00 mg/kg): 20%
% Inhibition of HA ([1]; rat, IV, dose 2.15 mg/kg): 27%

COc1cccc([C@@]2(O)C[C@H](O)CC[C@@H]2CN(C)C)c1 (racemic) [Axomadol-HCl, (1RS,3RS,6RS)-6-dimethylaminomethyl-1-(3-methoxyphenyl)-cyclohexane-1,3-diol]
Instance of the most frequent undesirable effects vs every other treatment group ([4]; 110 mg twice daily): higher
Dose from which overlap with antinociceptive effect (comparators: also side-effects that impair measurement) ([1]; rat, IV): From 14.7 mg/kg: overlap with antinociceptive
% Inhibition of HA ([1]; rat, IV, dose 2.15 mg/kg): 16%
% Inhibition of HA ([1]; rat, IV, dose 10.0 mg/kg): 40%
% Inhibition of HA ([1]; rat, IV, dose 14.7 mg/kg): 9%
Antihyperalgesic effect at higher doses ([1]; rat, IV, doses higher than 10 mg/kg): 9%

COc1cccc(C2(O)CCCCC2CN(C)C)c1 (stereo not shown) [Tramadol, reference compound]
Decrease in pain intensity compared to baseline [4]: not observed
Dose from which overlap with antinociceptive effect (comparators: also side-effects that impair measurement) ([1]; rat, IV): From 4.64 mg/kg: overlap with antinociceptive
